Assay results published in patent publication US20250009697A1, “COMPOSITION FOR INCREASING AMOUNT OF FOOD INGESTED AND/OR IMPROVING ANOREXIA, AND COMPOSITION FOR ACTIVATING TRANSIENT RECEPTOR POTENTIAL ANKYRIN 1” (HOUSE FOODS GROUP INC., priority 2021, published 2025).

Experiments:
Human TRPV1 (hTRPV1) = target: T1, Human TRPV1 (hTRPV1) (Homo sapiens, UniProt Q8NER1); test: TRPA1 Activation Test 2: intracellular Ca2+ imaging assay 2-2, hTRPV1 stably expressing cell line; assay type: cell-based; conditions: for TRPV1 activation rate: Table 9
T1 construct: expressed in transfected cells
T1 sequence (Q8NER1 whole entry): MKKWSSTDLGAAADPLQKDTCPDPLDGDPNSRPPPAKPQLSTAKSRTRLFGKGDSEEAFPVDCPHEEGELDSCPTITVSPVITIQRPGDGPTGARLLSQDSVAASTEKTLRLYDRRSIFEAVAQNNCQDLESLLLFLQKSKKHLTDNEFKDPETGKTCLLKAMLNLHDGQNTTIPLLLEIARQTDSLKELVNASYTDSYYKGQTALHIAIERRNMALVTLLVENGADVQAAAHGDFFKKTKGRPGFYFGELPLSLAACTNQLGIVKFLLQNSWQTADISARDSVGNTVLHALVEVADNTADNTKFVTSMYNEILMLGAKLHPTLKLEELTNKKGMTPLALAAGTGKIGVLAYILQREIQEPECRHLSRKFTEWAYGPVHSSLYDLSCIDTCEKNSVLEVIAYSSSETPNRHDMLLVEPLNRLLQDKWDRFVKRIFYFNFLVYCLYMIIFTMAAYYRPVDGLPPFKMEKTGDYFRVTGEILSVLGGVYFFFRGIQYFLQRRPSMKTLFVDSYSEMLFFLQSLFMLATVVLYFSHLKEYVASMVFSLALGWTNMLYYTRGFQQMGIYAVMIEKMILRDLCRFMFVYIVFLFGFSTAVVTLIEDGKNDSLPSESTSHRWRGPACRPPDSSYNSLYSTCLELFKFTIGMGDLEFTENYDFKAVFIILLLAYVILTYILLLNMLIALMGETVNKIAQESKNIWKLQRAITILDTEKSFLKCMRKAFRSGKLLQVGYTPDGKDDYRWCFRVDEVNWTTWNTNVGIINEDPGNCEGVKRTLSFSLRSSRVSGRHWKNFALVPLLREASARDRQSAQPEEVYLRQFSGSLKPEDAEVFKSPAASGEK
Method: (§1) DNAs encoding genes described in the following Table 2 were inserted into pcDNA 5/TO vector (Invitrogen) to prepare various expression vectors.
(§2) These expression vectors were transfected into T-REx™_293 cells (Invitrogen) by a conventional method using Lipofectamine LTX (Invitrogen). Then, various transfectants were cultured and cloned by a conventional method using Dulbecco's Modified Eagle Medium (DMEM, Nacalai Tesque Inc.), containing 10% fetal bovine serum (FBS, Cytiva), […] of hygromycin B, and 5 μg/mL of blasticidin S, as a drug selection medium to obtain a hTRPA1 stably expressing cell line, a hTRPV1 stably expressing cell line, and a hTRPM8 stably expressing cell line.
(§3) A hTRPA1 stably expressing cell line in which expression of hTRPA1 had been induced in advance by a conventional method was prepared in a 96 well clear bottom plate, and the hTRPA1 activating action of rhein (produced by Tokyo Chemical Industry Co., Ltd.) was tested. Specifically, after each well was washed with PBS, 50 μL of an assay buffer (Hanks' balanced salt solution containing no calcium ion or magnesium ion that contained 1 mM of CaCl2 dihydrate, 20 mM of HEPES, and 0.1% BSA) containing calcium fluorescent indicator Calbryte™ 520 AM (produced by AAT Bioquest) in a final concentration of 4 μM was added, followed by incubating at 33° C. for 45 minutes. After washing with the assay buffer, 100 μL of the assay buffer was added to each well. […] Then, a well in which an assay buffer containing ionomycin (having a final concentration of 10 μM after the addition) instead of the test samples was added was also prepared as a reference for fluorescence intensity.
(§4) The measurement was continued from the start of the measurement up to 120 seconds, and the TRPA1 activation ability of the test samples was calculated in accordance with the following formula.
(§5) Activation rate (%)=(Fmax[s]−F0)/(Fmax[i]−F0)×100 • Fmax[s]: The maximum value of the fluorescence intensity when the test sample or positive control was added • F0: The average value of the fluorescence intensity for 20 seconds after the start of the measurement (base line) • Fmax[i]: The maximum value of the fluorescence intensity when ionomycin was added
(§6) The TRPA1 activation ability of each test sample was measured in the same manner as in the above (2) except the test was conducted with A-967079 (1 μM), which is a TRPA1-specific antagonist, or without A-967079. In addition, intracellular Ca^2+ imaging assay was conducted in the same manner as in the above (2) except that a hTRPV1 stably expressing cell line, a hTRPM8 stably expressing cell line, or a Mock cell was used instead of the hTRPA1 stably expressing cell line. […]

[1] = Anorexia Improving Test 3: cumulative amounts of food ingested of mice, rhein with or without A-967079; assay type: in vivo; conditions: oral; for Cumulative amounts of food ingested of mice: rhein 100 μmol/kg body weight, A-967079 10 μmol/kg body weight
Method: Male ICR mice were housed in individual cages in which ALPHA-dri (Shepherd Specialty Papers) was laid, and were acclimatized and raised for at least one week or more while a powder feed (CE-2, CLEA Japan, Inc.) was given to the mice by using a powder feeder for mice (SN-950, Shinano Manufacturing Co., Ltd.). Then, for several days before the experiment, handling and oral administration training using a feeding needle (FG4202, Fuchigami Kikai Co., Ltd.) were conducted every day. To 9 week-old mice under ad libitum feeding conditions, a carrier solution (containing 2% of dimethyl sulfoxide and 98% of a 0.5% methyl cellulose solution in volume ratio) or a rhein solution (obtained by dissolving 8.53 mg of rhein in 1 mL of the carrier solution) was orally administered from 9:20 a.m. (10 mL/kg body weight). The dosage of rhein was 300 μmol/kg body weight in terms of molar concentration. Then, a feeder the mass of which had been measured in advance was set in the cage at 9:30 a.m. The masses of the feeder and the feed spilled in the cage 0.5, 1, 2, and 3 hours after the start of the feeding experiment were measured, and the ingested mass (g) at each time was measured (n=6). The ingested mass (g) of each mouse was measured in the same manner as in anorexia improving test 2 (the above item 5) except that 10 mL/kg body weight of a carrier solution, a rhein solution (100 μmol/kg body weight), an A-967079 solution (10 μmol/kg body weight), or a mixed solution of A-967079 and rhein (in 10 μmol/kg body weight and 100 μmol/kg body weight, respectively) was orally administered to the mouse. Results obtained by calculating the cumulative amounts of food ingested and conducting a multiple comparison (multiple t-test) by the Dunn-Bonferroni method are shown in Table 12.

Human TRPM8 (hTRPM8) = target: T2, Human TRPM8 (hTRPM8) (Homo sapiens, UniProt Q7Z2W7); test: TRPA1 Activation Test 2: intracellular Ca2+ imaging assay 2-2, hTRPM8 stably expressing cell line; assay type: cell-based; conditions: for TRPM8 activation rate: Table 9
T2 construct: expressed in transfected cells
T2 sequence (Q7Z2W7 whole entry): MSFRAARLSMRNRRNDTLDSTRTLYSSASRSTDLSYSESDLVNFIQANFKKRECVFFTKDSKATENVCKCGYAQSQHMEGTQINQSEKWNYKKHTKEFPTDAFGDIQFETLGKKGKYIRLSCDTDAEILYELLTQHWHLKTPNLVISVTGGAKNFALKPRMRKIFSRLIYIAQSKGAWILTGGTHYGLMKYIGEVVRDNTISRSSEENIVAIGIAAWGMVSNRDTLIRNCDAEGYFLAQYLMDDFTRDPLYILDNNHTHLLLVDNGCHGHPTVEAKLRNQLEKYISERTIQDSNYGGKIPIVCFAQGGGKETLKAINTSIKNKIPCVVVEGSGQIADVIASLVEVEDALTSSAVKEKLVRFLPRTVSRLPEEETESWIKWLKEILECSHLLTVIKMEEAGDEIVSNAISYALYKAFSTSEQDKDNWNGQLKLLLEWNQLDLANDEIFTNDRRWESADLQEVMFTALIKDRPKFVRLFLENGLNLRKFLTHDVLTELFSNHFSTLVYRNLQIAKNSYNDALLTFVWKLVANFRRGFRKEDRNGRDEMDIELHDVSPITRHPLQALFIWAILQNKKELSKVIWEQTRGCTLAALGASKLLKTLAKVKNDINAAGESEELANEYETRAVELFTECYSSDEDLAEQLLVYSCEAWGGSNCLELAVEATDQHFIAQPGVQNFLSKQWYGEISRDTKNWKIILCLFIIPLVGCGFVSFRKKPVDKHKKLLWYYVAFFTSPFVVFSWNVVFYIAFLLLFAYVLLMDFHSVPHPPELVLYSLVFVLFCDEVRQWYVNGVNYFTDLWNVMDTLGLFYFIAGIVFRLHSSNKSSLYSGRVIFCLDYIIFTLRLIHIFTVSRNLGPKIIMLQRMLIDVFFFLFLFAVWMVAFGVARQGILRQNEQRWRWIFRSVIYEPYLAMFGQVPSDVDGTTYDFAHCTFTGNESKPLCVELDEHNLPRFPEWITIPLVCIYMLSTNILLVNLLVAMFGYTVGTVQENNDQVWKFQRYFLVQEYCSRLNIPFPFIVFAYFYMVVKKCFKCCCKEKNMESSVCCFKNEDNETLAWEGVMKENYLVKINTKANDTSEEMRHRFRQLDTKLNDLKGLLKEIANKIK
Method: as §1, §2, §3, §4, §5, §6

[2] = Anorexia Improving Test 2: cumulative amounts of food ingested of mice, rhein; assay type: in vivo
Method: Male ICR mice were housed in individual cages in which ALPHA-dri (Shepherd Specialty Papers) was laid, and were acclimatized and raised for at least one week or more while a powder feed (CE-2, CLEA Japan, Inc.) was given to the mice by using a powder feeder for mice (SN-950, Shinano Manufacturing Co., Ltd.). Then, for several days before the experiment, handling and oral administration training using a feeding needle (FG4202, Fuchigami Kikai Co., Ltd.) were conducted every day.
To 9 week-old mice under ad libitum feeding conditions, a carrier solution (containing 2% of dimethyl sulfoxide and 98% of a 0.5% methyl cellulose solution in volume ratio) or a rhein solution (obtained by dissolving 8.53 mg of rhein in 1 mL of the carrier solution) was orally administered from 9:20 a.m. (10 mL/kg body weight). […] Then, a feeder the mass of which had been measured in advance was set in the cage at 9:30 a.m. The masses of the feeder and the feed spilled in the cage 0.5, 1, 2, and 3 hours after the start of the feeding experiment were measured, and the ingested mass (g) at each time was measured (n=6).

With `O=C(O)c1cc(O)c2c(c1)C(=O)c1cccc(O)c1C2=O` [Rhein, rhein] the “TRPV1 activation (in words)” value (Human TRPV1 (hTRPV1); hTRPV1 stably expressing cell line) was “not activated”, the TRPV1 activation rate (Human TRPV1 (hTRPV1); test sample 100 μM) was 2.40 ± 0.0395% and the TRPV1 activation rate (Human TRPV1 (hTRPV1); test sample 200 μM) was 5.49 ± 0.0830%. For the same molecule, the “Cumulative amounts of food ingested of mice” value ([1]; 0.5 hour after the administration) was 0.21 ± 0.033 g, the “Cumulative amounts of food ingested of mice” value ([1]; 1 hour after the administration) was 0.25 ± 0.027 g and the “Cumulative amounts of food ingested of mice” value ([1]; 2 hours after the administration) was 0.42 ± 0.020 g. The “Cumulative amounts of food ingested of mice” value ([1]; 3 hours after the administration) was 0.49 ± 0.035 g, the “Significant increase in the cumulative amounts of food ingested where A-967079 was administered (in words)” value ([1]; rhein 100 μmol/kg with A-967079 10 μmol/kg) was “not observed” and the “TRPM8 activation (in words)” value (Human TRPM8 (hTRPM8); hTRPM8 stably expressing cell line) was “not activated”. The TRPM8 activation rate (Human TRPM8 (hTRPM8); test sample 100 μM) was 2.52 ± 0.0847%, the TRPM8 activation rate (Human TRPM8 (hTRPM8); test sample 200 μM) was 5.71 ± 0.118% and the “Cumulative amounts of food ingested of mice (in words)” value ([2]; 100 μmol/kg body weight, FIG. 4) was “significantly increased”. For the same molecule, the “Cumulative amounts of food ingested of mice (in words)” value ([2]; oral, 300 μmol/kg body weight, 0.5 to 3 hours, FIG. 3) was “increased”.
